Measured values: ChEMBL document CHEMBL3400040, “Antileishmanial pharmacomodulation in 8-nitroquinolin-2(1H)-one series” (Bioorg Med Chem, 2015)

What was measured:
[1] = system: Leishmania donovani; test: Antileishmanial activity against promastigote stage of Leishmania donovani MHOM/IN/00/DEVI assessed as inhibition of metabolic activity after 72 hrs by MTT assay; format: functional, organism-based
[2] = (§1) Cytotoxicity against human HepG2 cells after 72 hrs by MTT assay; format: cell-based; conditions: HepG2 cells
[3] = Selectivity index, CC50 for human HepG2 cells to IC50 for promastigote stage of Leishmania donovani MHOM/IN/00/DEVI; format: functional
[4] = system: Leishmania donovani; test: Antileishmanial activity against intracellular amastigote stage of Leishmania donovani MHOM/IN/00/DEVI infected in human THP1 cells assessed as decrease infected macrophages after 120 hrs by microscopy; format: functional, organism-based; conditions: THP-1, 120 h
[5] = system: THP-1; test: Cytotoxicity against human THP1 cells after 72 hrs by MTT assay; format: cell-based; conditions: THP-1, 72 h
[6] = system: Leishmania infantum; test: Antileishmanial activity against intracellular amastigote stage of Leishmania infantum MHOM/MA/67/ITMAP-263 expressing luciferase infected in mouse J774A1 cells assessed as inhibition of metabolic activity after 120 hrs by luminescence assay; format: functional, organism-based; conditions: MHOM/MA/67/ITMAP-263, J774.A1, 120 h
[7] = Cytotoxicity against mouse J774A.1 cells after 72 hrs by MTT assay; format: cell-based; conditions: J774.1, 72 h
[8] = system: HepG2; test: as §1; format: cell-based; conditions: hepg2, 72 h
[9] = Leishmania donovani, MHOM/IN/00/DEVI, 72 h, read-out: IC50

| SMILES | IC50 [1, 9] | CC50 at 72 h [2] | Ratio CC50/IC50 [3] | further results |
| --- | --- | --- | --- | --- |
| O=c1cc(Br)c2cccc([N+](=O)[O-])c2[nH]1 | 9.6 µM | 27.1 µM | – | – |
| COc1cccc(C#Cc2cc(=O)[nH]c3c([N+](=O)[O-])cccc23)c1 | > 10 µM | > 10 µM | – | – |
| O=c1cc(-c2cccnc2)c2cccc([N+](=O)[O-])c2[nH]1 | > 50 µM | 10.1 µM | <1 | – |
| Cc1ccc(-c2cc(=O)[nH]c3c([N+](=O)[O-])cccc23)cc1 | 9.1 µM | 31 µM | 3.4 | – |
| O=c1cc(C#CCOc2ccccc2)c2cccc([N+](=O)[O-])c2[nH]1 | 1.4 µM | 1.8 µM | 1.3 | – |
| CCN(CC)CCCCCCNc1cc(OC)cc2c(C)ccnc12 [SITAMAQUINE] | – | – | – | IC50 [4]: 1 µM |
| Nc1cccc2ccc(=O)[nH]c12 | > 50 µM | > 100 µM | – | – |
| C[C@@H]1[C@H](O)[C@@H](C)/C=C/C=C/C=C/C=C/C=C/C=C/C=C/[C@H](O[C@@H]2O[C@H](C)[C@@H](O)[C@H](N)[C@@H]2O)C[C@@H]2O[C@](O)(C[C@@H](O)C[C@@H](O)[C@H](O)CC[C@@H](O)C[C@@H](O)CC(=O)O[C@H]1C)C[C@H](O)[C@H]2C(=O)O [AMPHOTERICIN B] | – | – | – | IC50 [4]: 0.16 µM; IC50 [5]: 8.4 µM; IC50 [6]: 0.06 µM; IC50 [7]: 2.5 µM |
| O=c1cc(C#CCCO)c2cccc([N+](=O)[O-])c2[nH]1 | 21.8 µM | 15.9 µM | 0.7 | – |
| N=C(N)c1ccc(OCCCCCOc2ccc(C(=N)N)cc2)cc1 [PENTAMIDINE] | – | – | 0.4 | IC50 [4]: > 20 µM; IC50 [6]: > 20 µM; IC50 [7]: 1 µM |
| CCCCCCCCCCCCc1cc(=O)[nH]c2c([N+](=O)[O-])cccc12 | – | – | – | IC50 [1]: ND(Insoluble); CC50 [8]: ND(Insoluble) |
| O=c1cc(-c2ccc(Br)cc2)c2cccc([N+](=O)[O-])c2[nH]1 | 3.3 µM | > 31.3 µM | >9.5 | IC50 [4]: > 15.6 µM; IC50 [5]: > 31.3 µM; IC50 [6]: > 20 µM; IC50 [7]: 9 µM |
| CSc1ccc(OCc2ncc([N+](=O)[O-])n2C)cc1 [FEXINIDAZOLE] | – | – | – | EC50 [4]: 2.8 µM |
| Cc1nc2c(Cl)cccc2c(O)c1CN1CCCCC1C (stereo not given) | – | – | – | IC50 [4]: 0.06 µM |
| O=c1cc(C#Cc2ccc(Cl)cc2)c2cccc([N+](=O)[O-])c2[nH]1 | – | – | – | IC50 [1]: ND(Insoluble); CC50 [8]: ND(Insoluble) |
| O=[N+]([O-])c1c(CS(=O)(=O)c2ccccc2)nc2c(Br)cc(Br)cn12 | – | – | – | IC50 [4]: 5.5 µM |
| COc1ccc(-c2cc(=O)[nH]c3c([N+](=O)[O-])cccc23)cc1 | 28 µM | 37.1 µM | 1.3 | – |

| SMILES | IC50 [1, 9] | CC50 at 72 h [2] | Ratio CC50/IC50 [3] | further results |
| --- | --- | --- | --- | --- |
| O=c1cc(-c2ccccc2)c2cccc([N+](=O)[O-])c2[nH]1 | 14.7 µM | 31.9 µM | 2.2 | – |
| O=c1cc(-c2ccc(F)cc2)c2cccc([N+](=O)[O-])c2[nH]1 | 28 µM | 36.1 µM | 1.3 | – |
| Cc1ccc(-c2cc(=O)[nH]c3c([N+](=O)[O-])cccc23)s1 | > 5 µM | > 15.6 µM | – | – |
| CCC(O)CC#Cc1cc(=O)[nH]c2c([N+](=O)[O-])cccc12 (stereo not given) | 16.7 µM | 3.8 µM | 0.2 | – |
| O=c1cc(-c2ccncc2)c2cccc([N+](=O)[O-])c2[nH]1 | 77.2 µM | 15.7 µM | 0.2 | – |
| O=c1cc(-c2ccc(C(F)(F)F)cc2)c2cccc([N+](=O)[O-])c2[nH]1 | 6.1 µM | 42.7 µM | 7 | IC50 [4]: > 20 µM; IC50 [5]: > 31.3 µM; IC50 [6]: 11.8 µM; IC50 [7]: 33.4 µM |
| CCCCCCCCCCCCCCCCOP(=O)([O-])OCC[N+](C)(C)C [MILTEFOSINE] | – | – | – | IC50 [4]: 6.8 µM; IC50 [5]: 40.5 µM; IC50 [6]: 4.2 µM; IC50 [7]: 90.4 µM |
| O=C(c1cccc([N+](=O)[O-])c1)c1ccc2ccc(/C=C/c3ccc(O)c(O)c3)nc2c1O | – | – | – | IC50 [4]: 1.22 µM |
| COc1cccc2c1C(=O)c1c(O)c3c(c(O)c1C2=O)C[C@@](O)(C(=O)CO)C[C@@H]3O[C@H]1C[C@H](N)[C@H](O)[C@H](C)O1 [DOXORUBICIN] | – | – | – | IC50 [7]: 0.06 µM |
| O=c1cc(-c2ccco2)c2cccc([N+](=O)[O-])c2[nH]1 | > 5 µM | > 31.3 µM | – | – |
| CC(C)(C)OCc1cc(=O)[nH]c2c([N+](=O)[O-])cccc12 | > 50 µM | 5.3 µM | <0.1 | – |
| O=c1cc(C#Cc2ccccc2)c2cccc([N+](=O)[O-])c2[nH]1 | 2.7 µM | 11.6 µM | 4.4 | – |
| O=c1cc(-c2ccc(Cl)cc2)c2cccc([N+](=O)[O-])c2[nH]1 | 4.2 µM | 16.1 µM | 3.8 | – |
| O=[N+]([O-])c1cccc2c(Br)cc(Br)nc12 | > 50 µM | > 100 µM | – | – |
| O=c1cc(-c2cccc(C(F)(F)F)c2)c2cccc([N+](=O)[O-])c2[nH]1 | > 5 µM | 14.7 µM | <2.9 | – |
| O=c1cc(C#CCO)c2cccc([N+](=O)[O-])c2[nH]1 | 2.4 µM | 2.1 µM | 0.9 | – |
